Data as given in patent US20260216144A1, “TARGETING MB2 OF THE MYC ONCOGENE AND ITS INTERACTION WITH TRRAP IN CANCER” (priority 2019, published 2026).

How the values were obtained:
[1] = biological target: T1, endogenous MYC:TRRAP complex (Homo sapiens, UniProt P01106+Q9Y4A5); test: co-IP of the endogenous MYC:TRRAP complex from HeLa cells incubated with compounds; assay type: cell-based; settings: for inhibition of MYC:TRRAP complex formation: luminescence assay and co-IP assay, compared to DMSO vehicle control, FIG. 24A
T1 construct: immunoprecipitation experiments using endogenous full length MYC and TRRAP
T1 sequence (P01106 16-454): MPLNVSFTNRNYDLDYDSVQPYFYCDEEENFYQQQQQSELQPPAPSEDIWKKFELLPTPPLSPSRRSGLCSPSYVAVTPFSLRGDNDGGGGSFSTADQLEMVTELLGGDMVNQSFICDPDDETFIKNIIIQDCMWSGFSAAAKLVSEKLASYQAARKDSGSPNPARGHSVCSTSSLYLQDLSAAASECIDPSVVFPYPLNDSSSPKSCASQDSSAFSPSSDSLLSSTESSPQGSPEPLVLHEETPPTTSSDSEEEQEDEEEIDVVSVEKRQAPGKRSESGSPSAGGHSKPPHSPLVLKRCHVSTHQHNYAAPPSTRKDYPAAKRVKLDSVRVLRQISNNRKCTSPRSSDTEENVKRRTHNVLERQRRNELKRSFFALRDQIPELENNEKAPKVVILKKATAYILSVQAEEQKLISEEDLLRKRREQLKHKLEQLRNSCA
T1 sequence (Q9Y4A5 1-3830 isoform Q9Y4A5-2): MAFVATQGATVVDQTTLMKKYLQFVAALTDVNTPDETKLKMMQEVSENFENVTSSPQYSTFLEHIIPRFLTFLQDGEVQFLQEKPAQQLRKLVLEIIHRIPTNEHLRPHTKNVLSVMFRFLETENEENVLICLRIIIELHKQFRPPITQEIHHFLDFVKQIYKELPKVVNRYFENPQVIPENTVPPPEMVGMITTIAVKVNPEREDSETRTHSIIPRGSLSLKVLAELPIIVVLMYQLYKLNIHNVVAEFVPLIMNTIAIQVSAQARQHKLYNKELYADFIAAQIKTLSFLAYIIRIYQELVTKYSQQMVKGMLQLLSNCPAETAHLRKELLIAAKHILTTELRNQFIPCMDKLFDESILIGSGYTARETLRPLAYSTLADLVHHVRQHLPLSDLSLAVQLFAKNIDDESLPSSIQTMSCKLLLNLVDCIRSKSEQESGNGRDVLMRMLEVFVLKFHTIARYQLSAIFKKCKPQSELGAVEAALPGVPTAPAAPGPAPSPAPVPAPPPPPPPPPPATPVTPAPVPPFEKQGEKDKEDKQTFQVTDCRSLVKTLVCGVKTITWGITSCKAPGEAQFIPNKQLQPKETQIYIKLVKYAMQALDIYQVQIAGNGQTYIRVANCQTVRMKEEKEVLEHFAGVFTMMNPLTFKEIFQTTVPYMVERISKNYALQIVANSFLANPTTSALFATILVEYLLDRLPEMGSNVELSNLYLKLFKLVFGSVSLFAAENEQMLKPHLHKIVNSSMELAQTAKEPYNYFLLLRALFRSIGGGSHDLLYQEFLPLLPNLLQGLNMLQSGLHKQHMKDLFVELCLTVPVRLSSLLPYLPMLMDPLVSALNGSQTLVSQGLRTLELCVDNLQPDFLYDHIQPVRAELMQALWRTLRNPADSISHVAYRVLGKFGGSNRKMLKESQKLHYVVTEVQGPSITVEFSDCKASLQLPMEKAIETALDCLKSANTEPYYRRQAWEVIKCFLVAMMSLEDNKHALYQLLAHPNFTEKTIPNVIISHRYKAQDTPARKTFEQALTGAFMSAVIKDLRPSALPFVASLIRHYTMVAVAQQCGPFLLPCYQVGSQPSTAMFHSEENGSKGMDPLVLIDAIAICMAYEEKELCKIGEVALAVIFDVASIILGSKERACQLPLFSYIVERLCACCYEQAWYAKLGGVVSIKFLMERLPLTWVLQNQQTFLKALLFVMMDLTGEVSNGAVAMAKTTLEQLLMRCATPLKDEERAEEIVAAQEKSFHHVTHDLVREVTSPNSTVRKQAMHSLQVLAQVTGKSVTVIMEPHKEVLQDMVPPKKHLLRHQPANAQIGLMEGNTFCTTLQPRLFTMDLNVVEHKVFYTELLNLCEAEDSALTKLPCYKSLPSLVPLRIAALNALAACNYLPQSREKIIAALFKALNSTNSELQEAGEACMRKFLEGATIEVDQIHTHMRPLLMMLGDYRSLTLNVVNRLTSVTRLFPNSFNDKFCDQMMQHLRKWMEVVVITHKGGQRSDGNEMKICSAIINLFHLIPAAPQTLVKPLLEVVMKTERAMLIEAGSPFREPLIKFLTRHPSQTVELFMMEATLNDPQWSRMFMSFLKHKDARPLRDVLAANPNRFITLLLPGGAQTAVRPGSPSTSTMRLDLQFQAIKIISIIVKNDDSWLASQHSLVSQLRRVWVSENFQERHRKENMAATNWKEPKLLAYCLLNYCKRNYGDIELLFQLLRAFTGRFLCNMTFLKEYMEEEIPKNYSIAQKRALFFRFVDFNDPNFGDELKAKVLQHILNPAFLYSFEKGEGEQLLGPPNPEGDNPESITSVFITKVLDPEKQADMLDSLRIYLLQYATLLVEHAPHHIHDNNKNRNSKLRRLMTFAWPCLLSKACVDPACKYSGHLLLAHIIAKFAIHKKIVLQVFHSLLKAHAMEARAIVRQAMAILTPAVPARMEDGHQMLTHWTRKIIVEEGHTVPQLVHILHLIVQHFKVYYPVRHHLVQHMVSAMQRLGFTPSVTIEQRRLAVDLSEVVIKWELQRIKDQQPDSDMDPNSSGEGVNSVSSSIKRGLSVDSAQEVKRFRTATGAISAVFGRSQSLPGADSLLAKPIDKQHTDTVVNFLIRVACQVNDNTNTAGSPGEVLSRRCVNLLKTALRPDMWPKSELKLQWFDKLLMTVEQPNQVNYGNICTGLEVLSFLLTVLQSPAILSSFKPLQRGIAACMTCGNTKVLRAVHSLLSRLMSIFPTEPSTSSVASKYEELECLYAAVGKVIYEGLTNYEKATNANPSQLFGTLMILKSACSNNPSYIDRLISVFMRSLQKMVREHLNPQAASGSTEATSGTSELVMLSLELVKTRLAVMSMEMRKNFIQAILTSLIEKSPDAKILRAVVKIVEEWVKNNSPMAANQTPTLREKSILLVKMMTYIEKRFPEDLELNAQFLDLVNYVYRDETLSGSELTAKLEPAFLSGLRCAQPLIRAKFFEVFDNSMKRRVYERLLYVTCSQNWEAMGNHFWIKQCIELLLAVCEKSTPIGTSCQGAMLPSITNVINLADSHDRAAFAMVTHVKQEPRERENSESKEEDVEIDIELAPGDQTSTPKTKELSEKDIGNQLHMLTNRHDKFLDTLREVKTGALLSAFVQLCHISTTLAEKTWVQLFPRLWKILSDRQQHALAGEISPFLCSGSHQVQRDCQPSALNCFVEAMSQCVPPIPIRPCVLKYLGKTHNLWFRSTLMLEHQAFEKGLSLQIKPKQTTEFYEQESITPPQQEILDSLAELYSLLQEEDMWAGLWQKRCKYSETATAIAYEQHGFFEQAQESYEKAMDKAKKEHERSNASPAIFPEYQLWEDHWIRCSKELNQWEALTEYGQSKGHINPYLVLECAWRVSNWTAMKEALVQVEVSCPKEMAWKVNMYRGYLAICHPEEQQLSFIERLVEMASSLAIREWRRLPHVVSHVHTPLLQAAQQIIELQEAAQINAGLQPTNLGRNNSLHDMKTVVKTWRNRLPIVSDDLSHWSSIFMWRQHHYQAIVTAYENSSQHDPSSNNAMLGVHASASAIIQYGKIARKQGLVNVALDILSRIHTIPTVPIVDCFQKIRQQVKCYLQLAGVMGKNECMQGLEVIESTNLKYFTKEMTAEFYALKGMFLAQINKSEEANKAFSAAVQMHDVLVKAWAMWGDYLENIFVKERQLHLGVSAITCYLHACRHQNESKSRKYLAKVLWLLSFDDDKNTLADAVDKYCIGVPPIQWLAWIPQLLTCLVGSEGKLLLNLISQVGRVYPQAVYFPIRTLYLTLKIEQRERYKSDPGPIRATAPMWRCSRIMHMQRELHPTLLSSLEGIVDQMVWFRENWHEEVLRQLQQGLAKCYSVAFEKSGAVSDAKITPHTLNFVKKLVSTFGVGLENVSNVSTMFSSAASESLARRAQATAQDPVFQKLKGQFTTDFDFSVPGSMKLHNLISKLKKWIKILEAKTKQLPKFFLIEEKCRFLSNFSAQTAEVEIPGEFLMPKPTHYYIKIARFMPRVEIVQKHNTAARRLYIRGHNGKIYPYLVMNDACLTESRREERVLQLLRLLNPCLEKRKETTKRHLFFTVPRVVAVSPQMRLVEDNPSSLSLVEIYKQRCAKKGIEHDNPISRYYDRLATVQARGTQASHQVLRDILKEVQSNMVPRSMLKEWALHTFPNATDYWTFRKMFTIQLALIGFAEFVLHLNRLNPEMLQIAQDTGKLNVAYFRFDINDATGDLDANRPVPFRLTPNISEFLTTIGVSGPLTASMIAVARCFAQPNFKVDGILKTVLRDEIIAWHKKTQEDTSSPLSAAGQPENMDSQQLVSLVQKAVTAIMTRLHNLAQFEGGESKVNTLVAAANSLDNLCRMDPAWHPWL
Experimental: FIGS. 23A-23B show the results of co-IP assay experiments comparing the top 17 hits in immunoprecipitation experiments using endogenous full length MYC and TRRAP. In these experiments immunocomplexes were immunoprecipitated with anti-MYC beads in the presence of 25 μM of each of the 17 top compounds. Experiments were carried out in cells (compounds were added to the media of cells) (FIG. 23B) or in vitro (compounds were added directly to the purified complex on pre-washed beads) (FIG. 23A). Immunoprecipitation of TRRAP was normalized to the immunoprecipitation of MYC.
The indicated TRRAP constructs were cloned into a CMV-driven plasmid containing an N-terminal FLAG tag as previously described (23). Full-length wild-type (WT) MYC and MYC ΔMB2 (A129-145), and the indicated MYC constructs were cloned into the same CMV-driven plasmid but containing a Glu-Glu (PYO) tag instead. HEK293T cells were co-transfected with equal amounts of each plasmid using LipoD293™ In vitro DNA Transfection Reagent per protocol (SignaGen). Cells were plated subconfluently 16-20 hours prior to transfection. After 24 hours, cells were lysed in F-buffer (10 mM TRIS pH 7.5, 50 mM NaCl, 30 mM sodium pyrophosphate, […], 10% glycerol, 1% Triton-X, 50 mM NaF) supplemented with 1 mM PMSF, 10 μM Leupeptin, 10 μM Pepstatin-A, and 10 μg/mL Aprotinin for immunoprecipitations and co-immunoprecipitations. Immunoprecipitations were performed using anti-FLAG (Sigma Aldrich), anti-PYO (Covance), or anti-MYC (C33 Santa Cruz Biotechnology) agarose preconjugated beads. Co-immunoprecipitation was analyzed by western blots with the following antibodies: MYC (sc-764 Santa Cruz Biotechnology), TRRAP (A301-132A Bethel Laboratories), FLAG (F7425 Sigma Aldrich), and PYO (Covance).
Co-IP experiments of the endogenous MYC:TRRAP complex were carried out to validate the results from the MYC:TRRAP in-cell luminescence complementation screen performed. HeLa cells were again subjected to the effects of incubation with each of the 17 compounds from FIG. 16 for 2 h before analysis. FIG. 19, FIG. 20, and FIG. 21 present the effects of these compounds on the endogenous MYC:TRRAP and MYC:MAX complexes. Like before, all compounds except for 7 and 11 had no effect on the levels of MYC or TRRAP. […] Incubation with some of the compounds that scored positive by the in-cell luminescence complementation screen had the predicted effect on the endogenous MYC:TRRAP complex. This validates the preliminary compound screen and presents the completion of a major milestone in the effort to therapeutically target MYC in cancer.

MYC:TRRAP interaction = MYC:TRRAP interaction (Homo sapiens, UniProt P01106+Q9Y4A5); test: MYC:TRRAP in-cell luminescence complementation assay (NanoBiT; SmB-MYC 1-190 and TRRAP 2033-2283-LgB in HeLa cells); assay type: cell-based
Chain of MYC:TRRAP interaction (P01106 16-205): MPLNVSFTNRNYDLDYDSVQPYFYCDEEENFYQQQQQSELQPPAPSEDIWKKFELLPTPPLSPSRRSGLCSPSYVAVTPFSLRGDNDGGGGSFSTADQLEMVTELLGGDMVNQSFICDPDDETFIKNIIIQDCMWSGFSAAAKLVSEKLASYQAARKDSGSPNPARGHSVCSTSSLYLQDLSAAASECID
Chain of MYC:TRRAP interaction (Q9Y4A5 2051-2301): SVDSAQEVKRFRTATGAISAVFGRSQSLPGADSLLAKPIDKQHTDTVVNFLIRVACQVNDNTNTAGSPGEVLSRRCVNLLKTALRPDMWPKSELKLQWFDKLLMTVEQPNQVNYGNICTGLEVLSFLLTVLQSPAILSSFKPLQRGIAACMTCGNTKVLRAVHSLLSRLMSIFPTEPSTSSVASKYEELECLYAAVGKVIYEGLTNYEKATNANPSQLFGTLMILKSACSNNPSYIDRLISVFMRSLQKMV
Experimental: HeLa cells plated on Greiner 96-well TC-rated white plates with clear bottoms were used for the following measurements. Reverse transfections were carried out using LipoD293™ before cells were plated. A bluescript KS' plasmid (Addgene) was used as carrier DNA for transfections, and a pcDNA3.1 EGFP plasmid (ThermoFisher) was used as a fluorescence reporter. White light-reflecting film (USA Scientific) was used to cover the bottom of the plates for luminescence measurements. Black light-absorbing film was used to cover the top of the plates for fluorescence measurements. All measurements were taken on a SpectraMax i3 instrument (Molecular Devices).
Transfections were carried out with increasing DNA amounts (1-100 ng per well) of a CMV-driven LgB plasmid and SmB in excess or vice-versa. Background luminesce for the usable range and the amount of DNA needed for vast excess of LgB or SmB were noted. Next, complementation with vast excess either LgB or SmB was used to determine the expression of each of the indicated MYC and TRRAP constructs for a range of DNA amounts per well: 10-100 ng. An optimal ratio of DNA to equalize the expression of each MYC and TRRAP pair was calculated. Then, signal-to-noise ratios were calculated for the indicated MYC and TRRAP pairs, and the pair with the highest ratio was chosen. Finally, the chosen pair was used to determine the optimal DNA transfection mixture. It was determined to be 6.7 ng of a plasmid with a MYC construct, 60 ng of a plasmid with a TRRAP construct and 33.3 ng of the pcDNA 3.1 EGFP plasmid, for each well in a 96-well plate. Unless otherwise indicated, these were the ratios of DNA transfected for this type of assay.
HeLa cells were transfected as above using LipoD293™ with a mixture of SmB-MYC 1-190, TRRAP 2033-2283-LgB, and EGFP in CMV-driven plasmids at the same optimized ratio described above. Two days post-transfection, the media in each well was replaced with fresh media containing each compound from the NCI's sets at 25 μM. Cells were incubated for 2 h with each compound, and luminescence and fluorescence measurements were recorded for each well. Changes in luminescence were normalized to fluorescence. The following pre-plated compound sets were obtained from the NCI/DTP chemical repository and used for this screen:
These chemical sets were used to discover novel small-molecule inhibitors of the MYC:TRRAP complex. SmB-MYC 1-190, TRRAP 2033-2283-LgB, and EGFP were transfected into HeLa cells. Two days post-transfection, compounds were added to the media at 25 μM and cells were incubated for 2h. Luminescence and fluorescence were recorded for each well containing one of the compounds. Changes in luminescence measurements were normalized to fluorescence measurements.
Afterwards, only molecules that reduced luminescence levels to <50% RLU were considered. This set of 46 compounds were incubated at 10 μM with vector-expressing cells. Luminescence complementation was measured and repeated in triplicate measurements. In addition, HeLa cells expressing LgB and SmB alone were incubated with the same compounds to rule out potentially artificial results due to inhibition of luciferase or its complementation. Molecules that induces any significant reduction in luminescence (<0.6) during this control assay were not considered further. Of 2947 molecules, 17 were chosen for further testing and ordered from the NCI/DTP Open Chemical Repository. FIG. 16 describes these chosen compounds.
Using the luminescence assay above as a readout for the MYC:TRRAP interaction, we used a robotic liquid handler to evaluate 2987 additional compounds (25 μM). All primary hits were counter-screened for any activity against the luciferase enzyme itself and for any effects on the expression of the fusion proteins. We set a threshold of 50% inhibition to consider compounds further. Only 17 out of 2987 passed all these criteria (0.6%). […]

[2] = Table 2, compounds with >80% similarity to compound 10 (NSC657456), 10 uM
[3] = Table 1, 46 primary hits at 10 uM, HeLa cells, triplicate measurements

SMILES | % Inhibition 10 uM (MYC:TRRAP interaction; [2]) [%] | % Inhibition 10 uM (MYC:TRRAP interaction; [3]) [%] | further results
COc1cc(C=C2S/C(=N/Nc3nc(-c4ccc(Br)cc4)cs3)N=C2O)cc(OC)c1OC (stereo in doubt) [Compound 10N, (2E,5Z)-2-[[4-(4-bromophenyl)-1,3-thiazol-2-yl] hydrazinylidene]-5-[(3,4,5-trimethoxy-phenyl)methylidene]-1,3-thiazolidin-4-one] | 88.1 |  | inhibition of the endogenous MYC:TRRAP interaction ([1]; FIG. 24): do not inhibit the endogenous MYC:TRRAP interaction; inhibition of MYC:TRRAP complex formation [1]: 20%
Cc1ccccc1/N=N/c1c(O)[nH]c2ccccc12 [Compound 1010, 3-[(2-methylphenyl)diazenyl]-1H-indol-2-ol] | 94.76 |  | 
Nn1c(S)nnc1/N=N/c1c(O)[nH]c2ccccc12 [Compound 1021, 4-amino-3-[(2-hydroxy-1H-indol-3-yl)diazenyl]-1H-1,2,4-triazole-5-thione] | 71.88 |  | 
N=C(N)/N=N/c1c(O)[nH]c2ccccc12 [Compound 104, 1-[(2-hydroxy-1H-indol-3-yl)imino] guanidine] | 123.9 |  | 
Oc1[nH]c2ccccc2c1/N=N/C(S)=N/c1ccccc1 [Compound 105, 1-[(2-hydroxy-1H-indol-3-yl)imino]-3-phenylthiourea] | 65.25 |  | 
Cc1ccccc1NC(=O)Cc1csc(/N=N/c2c(O)[nH]c3ccccc23)n1 [Compound 1029] | 98.07 |  | 
COc1cc(/N=N/c2cccc(S(N)(=O)=O)c2)c2ccccc2c1N [Compound 41, 3-[(4-amino-3-methoxy-naphthalen-1-yl)diazenyl] benzene-sulfonamide] |  | 78.97 | 
N#CC(=C/N=C(S)/N=N/c1c(O)[nH]c2ccccc12)c1nc2ccccc2s1 (stereo in doubt) [Compound 1030, 1-[(E)-2-(1,3-benzothiazol-2-yl)-2-cyanoethenyl]-3-[(2-hydroxy-1H-indol-3-yl)imino] thiourea] | 48.26 |  | 
Cc1ccc(/N=C(S)/N=N/c2c(O)[nH]c3ccccc23)cc1 [Compound 1036] | 86.98 |  | 
CC(=O)OC(C)C1C2=C(C(=O)C[C@]1(C)O)C(=O)c1c(ccc(-c3ccc4c(c3O)C(=O)C3=C(C4=O)C(C(C)OC(C)=O)[C@@](C)(O)CC3=O)c1O)C2=O (stereo partly drawn) [Compound 17, 1-[(2S)-6-[(6S)-5-(1-acetyloxyethyl)-1,6-dihydroxy-6-methyl-8,9,10-trioxo-5,7-dihydroanthracen-2-yl]-2,5-dihydroxy-2-methyl-4,9,10-trioxo-1,3-dihydroanthracen-1-yl]ethyl acetate] |  | 46.81 | 
COc1cc(O)c2c(c1)C(=O)c1cc3c(c(O)c1C2=O)C(OC1OC(C)C(O)C(O)C1OC)C(OC)C(C)(O)C3=O (stereo not shown) [Compound 22, 4-(4,5-dihydroxy-3-methoxy-6-methyloxan-2-yl)oxy-2,5,7-trihydroxy-3,9-dimethoxy-2-methyl-3,4-dihydrotetracene-1,6,11-trione] |  | 52.48 | 
COc1c2c(c(CC=C(C)C)c3oc(=O)c(-c4ccc(O)cc4)c(O)c13)OC(C)(C)C=C2 [Compound 24, 6-hydroxy-7-(4-hydroxyphenyl)-5-methoxy-2,2-dimethyl-10-(3-methylbut-2-enyl)pyrano[3,2-g]chromen-8-one] |  | 41.01 | 
CCN(CC)Cc1cc(/N=N/c2c(O)ccc3c(/N=N/c4ccc(O)c(CN(CC)CC)c4)c(O)ccc23)ccc1O.Cl [Compound 15, 1,5-bis[[3-(diethyl-aminomethyl)-4-hydroxyphenyl]diazenyl] naphthalene-2,6-diol; hydrochloride] |  | 57.02 | 
Oc1[nH]c2ccccc2c1/N=N/c1nc(-c2ccc(Br)cc2)cs1 [Compound 10, 3-[[4-(4-bromophenyl)-1,3-thiazol-2-yl]diazenyl]-1H-indol-2-ol] | 73.56 | 58.98 | inhibitory activity on immunoprecipitation of TRRAP normalized to MYC ([1]; 25 μM, top 17 hits, in cells or in vitro, FIG. 23A-23B): greatest inhibitory activity; inhibition of MYC:TRRAP complex formation [1]: 70%; inhibition of MYC:TRRAP binding (MYC:TRRAP interaction; most consistent inhibition in multiple assays): ~ 50%
COc1ccc(OC)c(-c2cc(=O)c3c(OC)c(OC)c(OC)c(OC)c3o2)c1 [Compound 6, 2-(2,5-dimethoxyphenyl)-5,6,7,8-tetramethoxy-chromen-4-one] |  | 33.66 | 
COc1cc2c3c(cc4ccccc4c3c1O)N(C)CC2 [Compound 39] |  | 73.42 | 
Oc1[nH]c2ccccc2c1/N=N/C1=NCCCCN1 [Compound 1037, 3-(4,5,6,7-tetrahydro-1H-1,3-diazepin-2-yldiazenyl)-1H-indol-2-ol; hydroiodide] | 85.49 |  | 
CN(C)c1ccc(C=C2C=C(c3ccc4c(c3)CCCC4)OC2=O)cc1 (stereo in doubt) [Compound 46, (3Z)-3-[[4-(dimethylamino)phenyl]methylidene]-5-(5,6,7,8-tetrahydro-naphthalen-2-yl)furan-2-one] |  | 96.48 | 
Cc1cc(O)c(C(C)C)cc1C1(c2cc(C(C)C)c(O)cc2C)OC(=O)c2ccccc21 [Compound 2, 3,3-bis(4-hydroxy-2-methyl-5-propan-2-ylphenyl)-2-benzofuran-1-one] |  | 11.16 | 
